Test results: publication PMC4820309, “Pseudopterosin A: Protection of Synaptic Function and Potential as a Neuromodulatory Agent” (Marine Drugs, 2016)
Read-outs that look alike come from different tables or passages of the source.

What was measured:
[1] = test system: Drosophila larval NMJ; assay: Synaptic transmission at the Drosophila larval NMJ during H2O2-induced oxidative stress (EJP recording until synaptic failure); type: cell-based, Drosophila melanogaster
Protocol: (§1) This study used wild-type Canton-S Drosophila melanogaster third instar wandering larvae (~110 h old). All larvae were raised within an equal population density in 170 mL plastic culture bottles (~100 flies per bottle) containing 50 mL of Nutri-Fly Bloomington Formulation (Genessee Scientific, San Diego, CA, USA) fly food in an incubator at 25 °C under a 12 h:12 h light–dark light cycle.
(§2) Synaptic transmission was measured in Canton-S animals as previously described. Briefly, individual Canton-S third instar larvae were placed in a glass dissecting dish containing 2 mL of Schneider’s insect medium (Sigma, St. Louis, MO, USA) with the dorsal side up using standard insect pins. A longitudinal cut was made along the dorsal surface and the internal organs and central nervous system were removed to expose the underlying segmental muscles and nerves. An extracellular glass suction electrode was used to stimulate segmental nerves in muscle segments. The postsynaptic excitatory junction potential (EJP) was recorded from muscle 6 in abdominal segment A3 or A4 with a sharp intracellular glass recording electrode filled with 3 M KAc (~40 MΩ). The Schneider’s insect medium was replaced with 2 mL of hemolymph-like (HL-3) saline (1.5 mM CaCl2, 20 mM MgCl2, 5 mM KCl, 70 mM NaCl, 10 mM NaHCO3, 5 mM BES, 115 mM sucrose, 5 mM trehalose·2H2O) made fresh daily. EJP recordings were viewed with an oscilloscope and digitally stored using the Scope program (AD Instruments, Colorado Springs, CO, USA) for analysis. Evoked EJPs from repetitive stimulation (0.3 ms pulses delivered suprathreshold with a 1 Hz frequency) of both axons in larval muscle 6 were recorded in a stop-flow condition until synaptic transmission failure (amplitude < 1 mV).
(§3) The same electrophysiology preparation assay described above was performed; however, Canton-S larvae were also exposed to oxidative stress, Trolox, and PsA. Oxidative stress was induced in larval preparations by adding either 1 mM H2O2 or 75 µM NaN3 to the HL-3 saline (all chemicals obtained from Sigma, St. Louis, MO, USA). Larvae subjected to oxidative stress and simultaneous drug treatment included one of the following agents dissolved in DMSO: 5 µM Trolox or 1 µM PsA. A dose-response assay from 0.5 to 10 µM was performed to determine the effective concentration of PsA to prolong synaptic transmission at the Drosophila larval NMJ during oxidative stress exposure (Figure 3).
(§4) All synaptic function data were analyzed using SigmaPlot (Systat Software, San Jose, CA, USA) statistical analysis software. A one-way analysis of variance (ANOVA) test followed by a post hoc multiple comparisons procedure (Holm–Šidák) was used to compare significant differences across all treatment groups. Statistical significance (p < 0.05) was assigned using letter designations, where different letters show significant differences and the same letter assignments are not significant. The letter assignments begin with “A” representing the highest mean, “B” indicating the next highest, and so forth. All vertical bar charts are shown with the means ± SE.

[2] = test system: Drosophila larval NMJ; assay: Synaptic transmission at the Drosophila larval NMJ during NaN3-induced oxidative stress (EJP recording until synaptic failure); type: cell-based, Drosophila melanogaster; details: for average time until synaptic failure: mean ± SE
Protocol: as §1, §2, §3, §4

[3] = test system: mice; assay: Tolerability in mice after 50 mg/kg intravenous injection
[4] = Pharmacokinetics and tissue distribution of PsA in mice after IV bolus; type: in vivo, mouse; details: for Kp / half-life: mouse, iv, 50 mg/kg; for AUC (AUClast): linear trapezoidal rule
Protocol: After spiking with 10 µL of 17β-estradiol (100 µg/mL), 100 µL plasma or […] of tissue homogenate (prepared as above) was mixed with 300 µL of acetonitrile and vortex-mixed for 15 s. The samples were then extracted with 0.6 mL of ethyl acetate. After centrifugation for 10 min at 2000× g, the upper organic layer was removed and evaporated to dryness under reduced pressure in a vacuum centrifuge. The residue obtained was reconstituted in 80 µL acetonitrile with ultrasonic treatment for 1 min and the derivatization was performed as follows.
The HPLC measurements were carried out using a Shimadzu LC-20AT liquid chromatography, which were coupled to a UV-SPD-M20A diode array detector. Data acquisition was performed using EZStart chromatography software package version 7.4. The chromatographic separation of NBD-Cl -derivative of PsA was achieved using Phenomenex Gemini 5 µm C18 110 Å column with a Phenomenex Security Guard C18 guard column (Torrance, CA, USA). The Mobile phase: A: 20 mM AcONH4 (pH = 7.4): ACN (2:1); B: CAN. Running program: 0–5 min, 80%–90% B; 5–7 min, 90% B; 7–12 min, 90%–100% B; 12–15 min, 100%–80% B. The mobile phase flow rate was 1.0 mL/min and the UV detection wavelength was set to 378 nm. Under the chromatographic conditions described, NBD-Cl derivatives of PsA and 17β-estradiol eluted at 7.3 and 5.5 min, respectively.
(Pharsight, Mountain View, CA, USA).

[5] = set-up: method as in PMID 22851883; details: cited from earlier work
[6] = male, NIH Swiss, mouse brain, 50 mg/kg IV
[7] = male, NIH Swiss, mouse kidney, 50 mg/kg IV
[8] = male, NIH Swiss, mouse liver, 50 mg/kg IV
[9] = male, NIH Swiss, mouse plasma, 50 mg/kg IV bolus, estimate ± standard error

## OO [H2O2, hydrogen peroxide]
[1]; H2O2 1 mM alone, control 132 ± 3 min
  average time until synaptic transmission failure: 50 ± 2 min
[1]; H2O2 1 mM alone, controls 136 or 139 min
  maximal time of synaptic activity before failure: 55 min

## [N-]=[N+]=[N-].[Na+] [NaN3, sodium azide, reference compound]
[2]; NaN3 75 µM alone, control 130 ± 3 min
  average time of synaptic activity until failure: 44 ± 3 min
[2]; NaN3 75 µM alone, controls 136 or 139 min
  maximal time of synaptic activity before failure: 52 min

## Cc1c(C)c2c(c(C)c1O)CCC(C)(C(=O)O)O2 (centres unmarked) [Trolox, 6-hydroxy-2,5,7,8-tetramethylchromane-2-carboxylic acid, reference compound]
[1]; Trolox 5 µM during H2O2 1 mM exposure, vs H2O2 alone
  increase of synaptic function: 60%
[1]; Trolox 5 µM with H2O2 1 mM
  maximal time until synaptic breakdown: 85 min
[1]; Trolox 5 µM with H2O2 1 mM, mean ± SE
  average time until synaptic transmission failure: 80 ± 2 min
[2]; Trolox 5 µM during NaN3 75 µM exposure, vs NaN3 alone
  increase of synaptic activity: 25%
[2]; Trolox 5 µM with NaN3 75 µM
  maximal time until synaptic breakdown: 64 min
  average time until synaptic failure: 55 ± 3 min

## CC(C)=C[C@H]1C[C@H](C)[C@H]2CC[C@H](C)c3c(O[C@@H]4OC[C@@H](O)[C@H](O)[C@H]4O)c(O)c(C)c1c32 [PsA, pseudopterosin A]
[1]; PsA 1 µM during H2O2 1 mM exposure, vs H2O2 alone
  increase of synaptic tolerance: 26%
[1]; PsA 1 µM with H2O2 1 mM
  maximal synaptic failure time: 70 min
[1]; PsA 1 µM with H2O2 1 mM, mean ± SE
  average time until synaptic transmission failure: 63 ± 2 min
[2]; PsA 500 nM during NaN3 75 µM exposure, vs NaN3 alone
  increase of synaptic tolerance: 87%
[2]; PsA 500 nM with NaN3 75 µM
  average time until synaptic failure: 83 ± 5 min
[2]; PsA 1 µM during NaN3 75 µM exposure, vs NaN3 alone
  increase of synaptic functional tolerance: 152%
[2]; PsA 1 µM with NaN3 75 µM
  maximal synaptic failure time: 122 min
[2]; PsA 1 µM with NaN3 75 µM, failure = EJP amplitude < 1 mV
  average time until synaptic failure: 112 ± 4 min
[3]
  tolerability of the dose: well tolerated
[4]; male, NIH Swiss, brain / plasma, mouse brain, 50 mg/kg IV, read-out: Relative Exposure (AUCtissue/AUCplasma)
  Kp: 1.36
[4]; male, NIH Swiss, brain, mouse brain, 50 mg/kg IV, read-out: Half-life (converted)
  half-life: 2.91 h
[4]; male, NIH Swiss, brain, liver, kidney / plasma, all tissues (brain, liver, kidney) vs plasma, 50 mg/kg IV, read-out: relative exposure (RE)
  Kp: 1.27 to 1.36
[4]; male, NIH Swiss, brain, liver, kidney / plasma, brain, liver and kidney during the elimination phase, 50 mg/kg IV, read-out: tissue/plasma concentration ratios
  Kp: > 1
[4]; male, NIH Swiss, kidney / plasma, mouse kidney, 50 mg/kg IV, read-out: Relative Exposure (AUCtissue/AUCplasma)
  Kp: 1.28
[4]; male, NIH Swiss, kidney, mouse kidney, 50 mg/kg IV, read-out: Half-life (converted)
  half-life: 3.98 h
[4]; male, NIH Swiss, liver / plasma, mouse liver, 50 mg/kg IV, read-out: Relative Exposure (AUCtissue/AUCplasma)
  Kp: 1.27
[4]; male, NIH Swiss, liver, mouse liver, 50 mg/kg IV, read-out: Half-life (converted)
  half-life: 3.16 h
[4]; male, NIH Swiss, plasma, brain, liver, kidney, mouse plasma and tissues (brain, liver, kidney), 50 mg/kg IV, read-out: elimination half-life
  half-life: 3 to 4 h
[4]; male, NIH Swiss, plasma, mouse plasma, 50 mg/kg IV bolus, two-compartment model, estimate ± standard error, read-out: Distribution Half-life (converted)
  half-life: 0.05 ± 0.005 h
[4]; male, NIH Swiss, plasma, mouse plasma, 50 mg/kg IV bolus, two-compartment model, estimate ± standard error, read-out: Elimination Half-life (converted)
  half-life: 3.21 ± 0.3 h
[4]; [6]
  Cmax: 10000 ng/g
  Tmax: 0.5 h
[4]; [7]
  Cmax: 3000 ng/g
  Tmax: 1.5 h
[4]; [8]
  Cmax: 10100 ng/g
  Tmax: 0.17 h
[4]; [9]
  AUC: 14400 ± 950 ng·h/mL
  Cmax: 85.5 ± 7.64 µg/mL
  clearance: 58 mL/min/kg
[4]; male, NIH Swiss, mouse plasma, 50 mg/kg IV bolus, estimate ± standard error, read-out: Vss
  Vd: 10.1 ± 1.35 L/kg
[4]; mouse brain, 50 mg/kg IV
  time of peak mean concentration: 30 min
  AUC (AUClast): 19.49 mg·h/kg
[4]; mouse kidney, 50 mg/kg IV
  time of peak mean concentration: 90 min
  AUC (AUClast): 18.37 mg·h/kg
[4]; mouse liver, 50 mg/kg IV
  time of peak mean concentration: 10.2 min
  AUC (AUClast): 18.20 mg·h/kg
[5]
  lipophilicity: high lipophilicity
